From patent publication US9725442B2, “Heterocyclic derivative having PGD2 receptor antagonist activity” (Shionogi & Co., Ltd., priority 2011, dated 2017)

How the values were obtained:
CRTH2 = CRTH2 (Homo sapiens (Human), UniProt Q9Y5Y4); assay: CRTH2 inhibitory activity in CRTH2-expressing cells (PGD2-induced intracellular calcium increase, K562); format: cell-based; details: 200 nM PGD2, read-out: IC50, inhibition of intracellular calcium concentration increase induced by PGD2
Description: CRTH2 inhibitory activities of compounds were determined as inhibition activity of intra-cellular calcium concentration increase induced by PGD2 in CRTH2-expressing cells.
CRTH2-expressing K562 cells were suspended at concentration of 2×10^6 cells/ml in buffer (10 mM HEPES, pH 7.4, 0.1% Bovine serum albumin). Cells were incubated with […] (4 μM) for 30 min at room temperature. Cells were washed, resuspended and mixed with various concentration of compounds of the present invention. After 2 min, cells were treated with 200 nM of PGD2. Then intracellular calcium concentration was measured using intracellular ion analyzer (FDSS3000). Inhibition ratio was defined by comparing intracellular calcium concentration increase with and without compound, and IC50 for each compound was calculated from inhibitory curve.

CYP2C19 = CYP2C19 (Homo sapiens (Human), UniProt P33261); assay: CYP inhibition test, mephenyloin 4'-hydroxylation; format: in vitro ADME; details: pooled human hepatic microsome, 50 μmol/L S-mephenyloin
Text: Using commercially available pooled human hepatic microsome, and employing, as markers, 7-ethoxyresorufin O-deethylation (CYP1A2), tolbutamide methyl-hydroxylation (CYP2C9), mephenyloin 4′-hydroxylation (CYP2C19), dextromethorphan O-demethylation (CYP2D6), and terfenedine hydroxylation as typical substrate metabolism reactions of human main five CYP enzyme forms (CYP1A2, 2C9, 2C19, 2D6, 3A4), an inhibitory degree of each metabolite production amount by a compound of the present compound was assessed.
The reaction conditions were as follows: substrate, 0.5 μmol/L ethoxyresorufin (CYP1A2), 100 μmol/L tolbutamide (CYP2C9), 50 μmol/L S-mephenyloin (CYP2C19), 5 μmol/L dextromethorphan (CYP2D6), 1 μmol/L terfenedine (CYP3A4); reaction time, 15 minutes; reaction temperature, 37° C.; enzyme, pooled human hepatic microsome 0.2 mg protein/mL; concentration of a compound of the present invention, 1, 5, 10, 20 μmol/L (four points).
Each five kinds of substrates, human hepatic microsome, or a compound of the present invention in 50 mM Hepes buffer as a reaction mixture was added to a 96-well plate at the composition as described above, NADPH, as a cofactor was added to initiate metabolism reactions as markers and. After the incubation at 37° C. for 15 minutes, a methanol/acetonitrile=1/1 (v/v) solution was added to stop the reaction. After the centrifugation at 3000 rpm for 15 minutes, resorufin (CYP1A2 metabolite) in the supernatant was quantified by a fluorescent multilabel counter and tolbutamide hydroxide (CYP2C9 metabolite), mephenyloin 4′ hydroxide (CYP2C19 metabolite), dextrorphan (CYP2D6 metabolite), and terfenadine alcohol (CYP3A4 metabolite) were quantified by LC/MS/MS.

Human DP1 receptor = Human DP1 receptor (Homo sapiens (Human), UniProt Q13258); assay: Human DP1 inhibitory activity in DP1-expressing cell (PGD2-induced cAMP); format: cell-based
Description: Compounds were categorized as AA (cAMP is less than 100 nM) and A (cAMP is more than 100 nM and less than 5000 nM) as shown in Table 99 and 100.

DP receptor = DP receptor (Homo sapiens (Human), UniProt Q13258); assay: DP inhibitory activity in human platelets (PGD2-induced cAMP increase in platelet rich plasma, HTRF); format: cell-based; details: IC50 of PGD2 (300 nM)-induced cAMP increase, read-out: PRP
Description: Thirty milliliter of blood was drown from healthy human into a syringe preloaded with 1/9 volume of 3.8% citrate sodium. The blood was centrifuged with 180 g for 10 min at room temperature and the upper plasma layer was collected as platelet rich plasma (PRP). The PRP was transferred to plate and treated with 3-isobutyl-1-methylxanthin (IBMX; […]) for 5 min. Then the compounds of the present invention were added to the plate and after 10 min, 300 nM of PGD2 was added. The reaction was stopped with 1 mmol/l hydrogenchlolide after 2 min of PGD2 addition, and platelet was lysed by adding 12% Triton X-100. The concentration of cAMP in the supernatant of the platelet lysate was quantified using homogenous time resolved fluorescence (HTRF). Inhibition ratio was defined by cAMP increase with and without compound, and […] for each compound was calculated from inhibitory curve.

[1] = BA test (oral absorbability); format: in vivo; details: rat, plasma; Rats, Oral administration 1 mg/kg
Description: An experimental material and a method for examining oral absorbability • (1) Animals used: rats or mice were used. • (2) Breeding condition: chow and sterilized tap water were allowed to be taken in freely. • (3) Setting of a dosage and grouping: a predetermined dosage was administered orally or intravenously. Groups were formed as shown below. (A dosage varied depending on each compound) Oral administration 1-30 mg/kg (n=2 to 3) Intravenous administration 0.5-10 mg/kg (n=2 to 3) • (4) Preparation of administered liquid: In oral administration, a solution or suspension was administered. […] In intravenous administration, administration from the caudal vein was conducted using a syringe with an injection needle. • (6) Evaluation item: Blood was chronologically collected, and then the concentration of a compound of the present invention blood plasma was measured using a LC/MS/MS. • (7) Statistical analysis: With regard to a shift in plasma concentration, the plasma concentration-time area under the curve (AUC) was calculated using a nonlinear least-squares program WinNonlin®. Bioavailability (BA) was calculated from the AUCs of the oral administration group and the intravenous administration group, respectively. […]

[2] = Metabolism stability test; format: in vitro ADME; details: human liver microsomes, 30 minutes, 37° C., NADPH, 0.5 μmol/L of the compound
Description: Using a commercially available pooled human hepatic microsomes, a compound of the present invention was reacted for a constant time, a remaining rate was calculated by comparing a reacted sample and an unreacted sample, thereby, a degree of metabolism in liver was assessed.
A reaction was performed (oxidative reaction) at 37° C. for 0 minute or 30 minutes in the presence of 1 mmol/L NADPH in 0.2 mL of a buffer (50 mmol/L Tris-HCl pH 7.4, 150 mmol/L potassium chloride, 10 mmol/L magnesium chloride) containing 0.5 mg protein/mL of human liver microsomes. After the reaction, 50 μL of the reaction mixture was added to 100 μL of a methanol/acetonitrile=1/1 (v/v), mixed and centrifuged at 3000 rpm for 15 minutes. The compound of the present invention in the supernatant was quantified by LC/MS/MS, and a remaining amount of the compound of the present invention after the reaction was calculated, letting a compound amount at 0 minute reaction time to be 100%. Glucuronidation reaction was in the presence of 5 mM UDP-glucuronic acid in place of NADPH, followed by similar operations.

[3] = IC50 of PGD2 (60 nM)-induced cAMP increase, human DP1 receptor expressing Jurkut cell
[4] = category of cAMP IC50, human DP1 receptor expressing Jurkut cell

Sequence of CRTH2 (Q9Y5Y4 whole entry): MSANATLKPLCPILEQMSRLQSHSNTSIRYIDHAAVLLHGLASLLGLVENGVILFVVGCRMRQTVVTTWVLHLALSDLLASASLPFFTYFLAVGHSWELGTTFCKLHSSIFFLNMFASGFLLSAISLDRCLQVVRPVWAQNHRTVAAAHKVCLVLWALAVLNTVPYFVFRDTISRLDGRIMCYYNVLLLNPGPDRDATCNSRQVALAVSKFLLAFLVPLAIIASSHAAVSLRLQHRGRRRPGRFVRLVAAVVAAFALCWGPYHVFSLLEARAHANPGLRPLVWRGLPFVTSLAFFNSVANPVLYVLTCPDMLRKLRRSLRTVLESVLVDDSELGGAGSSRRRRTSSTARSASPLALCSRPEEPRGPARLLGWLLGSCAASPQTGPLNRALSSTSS
Sequence of CYP2C19 (P33261 whole entry): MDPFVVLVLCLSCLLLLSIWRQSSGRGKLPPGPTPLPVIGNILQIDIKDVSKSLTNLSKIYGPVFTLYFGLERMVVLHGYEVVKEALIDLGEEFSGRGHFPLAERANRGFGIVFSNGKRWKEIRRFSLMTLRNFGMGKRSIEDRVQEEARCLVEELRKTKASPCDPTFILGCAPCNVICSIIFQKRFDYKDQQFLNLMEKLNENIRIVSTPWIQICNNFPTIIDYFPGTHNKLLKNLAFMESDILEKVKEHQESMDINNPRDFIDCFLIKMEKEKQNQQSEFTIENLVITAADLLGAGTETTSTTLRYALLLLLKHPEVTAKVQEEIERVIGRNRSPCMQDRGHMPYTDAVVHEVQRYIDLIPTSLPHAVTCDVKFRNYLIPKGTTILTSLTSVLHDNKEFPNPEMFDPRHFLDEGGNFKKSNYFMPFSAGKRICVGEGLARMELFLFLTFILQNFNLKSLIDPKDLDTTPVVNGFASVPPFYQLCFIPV
Sequence of DP receptor (Q13258 whole entry): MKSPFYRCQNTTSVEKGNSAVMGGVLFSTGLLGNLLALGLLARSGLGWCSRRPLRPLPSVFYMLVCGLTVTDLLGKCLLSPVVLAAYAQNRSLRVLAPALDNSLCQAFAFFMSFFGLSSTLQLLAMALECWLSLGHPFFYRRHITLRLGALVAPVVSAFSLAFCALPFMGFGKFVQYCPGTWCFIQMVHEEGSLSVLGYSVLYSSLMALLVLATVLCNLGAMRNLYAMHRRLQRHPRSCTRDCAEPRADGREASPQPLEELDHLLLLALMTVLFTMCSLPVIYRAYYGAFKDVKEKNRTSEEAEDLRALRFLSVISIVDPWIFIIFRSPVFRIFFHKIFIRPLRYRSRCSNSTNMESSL
Sequence of Human DP1 receptor (Q13258 whole entry): as above

IC50 (CRTH2) [nM] | IC50 (CYP2C19) [nM] | IC50 (Human DP1 receptor; [3]) [nM] | IC50 (Human DP1 receptor; [4]) [nM] | IC50 (DP receptor) [nM] | bioavailability [1] [%] | remaining rate after reaction (result heading prints '% inhibition') [2] [%] | SMILES
33 | > 20000 | 23 | < 100 | 26 | – | – | CC(C)Oc1ccc(S(=O)(=O)N2C[C@H](n3nc(CC(=O)O)c4ccc(F)cc43)C[C@H]2C#N)cc1 [Compound I-7]
50 | > 20000 | 10 | < 100 | 71 | 71 | – | CC(C)Oc1ccc(S(=O)(=O)N2C[C@@H](C)[C@@H](n3nc(CC(=O)O)c4ccc(F)cc43)C2)cc1 [Compound I-37]
140 | > 20000 | – | < 100 | – | – | 97.2 | CC(C)Oc1ccc(S(=O)(=O)N2C[C@@H](C)[C@@H](n3nc(CC(=O)O)c4ccc(F)cc43)C2)c(F)c1 [Compound I-52]
210 | > 20000 | – | < 100 | – | – | 86.9 | CC(C)Oc1ccc(S(=O)(=O)N2C[C@@H](C)[C@@H](n3nc(CC(=O)O)c4ccc(F)cc43)C2)cn1 [Compound I-57]
230 | > 20000 | 40 | < 100 | 68 | 82 | 99.3 | CCOc1ccc(S(=O)(=O)N2C[C@@H](C)[C@@H](n3nc(CC(=O)O)c4ccccc43)C2)cn1 [Compound I-96]
